Where no end group is shown, it is not given here.
System: filter-sterile supernatant of D. japonica MF79
Experiment: Peptide quantification by mass spectrometry after incubation in cell-free supernatant of D. japonica MF79
Assay type: in vitro ADME, Dyella japonica MF79
Conditions: for peptide degradation in culture supernatant of wild-type D. japonica MF79 / peptide depletion in supernatant of the D. japonica MF79 gspD mutant: 1 µM peptide, 1 h, filter-sterile supernatant, XVM2 (OD600 = 0.6), LC-MS; for Log10(total_area_MS1) / percent_rel_axenic: incubation 1h; for Log10(total_area_MS1): MS1 precursor area; for percent_rel_axenic: peptide relative to axenic
Protocol: Elicitors were also supplemented into the medium prior to solidification at a final concentration of 1 µM. The flg22 ([…]) and AtPep1 ([…]) peptides were synthesized by EZbiolab. elf18^R179 (Ac-[…]) and elf18 (Ac-[…]) were synthesized by GenScript and EZbiolab, respectively. […] Bacteria were pelleted by centrifugation (11,600 g, 2 min), and the supernatant was sterile-filtered using filter units with MF-Millipore membrane (0.22 µm; Millex). The supernatant was incubated in boiling water for 30 min for heat treatment. Then, 25 ml of 1× MS with 20 g l^−1 Bacto Agar was mixed with 25 ml of supernatant prior to medium solidification and poured into square petri dishes. Sterilized seeds were placed on solidified agar in square petri dishes and vertically incubated for 14 days.
Bacterial supernatants were prepared as described in ‘Agar-based cultivation of axenic plants and co-cultivation with bacteria, bacterial supernatants and elicitors’. Here, additionally, the peptides dRGF1 (DYSNPGHHP-Hyp-RHN) and PSY1 (D-Y(SO3H)-[…]-Hyp-Hyp-S) synthesized by Scilight Peptide were incubated for 1 h with 1 µM of peptides in a plant cultivation light chamber (day-light condition; see ‘Plant cultivation conditions’), and the samples were frozen at −20 °C until further processing. For the investigation of AtPep1 degradation, the AtPep1 peptide was first modified by acetylation (six to seven times). To this end, 100-µl aliquots of peptides were treated with 10 µl of NHS acetate solution (1 M NHS acetate in 50% ACN/PBS) and incubated for 30 min with shaking. The reaction was quenched by the addition of 100 µl of 100 mM Tris-HCl (pH 8.5) and incubated for 10 min. For comparison of the non-acetylated peptides with the above-described modified AtPep1 peptides, aliquots of the non-acetylated peptides were processed as described above, but without the modifying NHS reaction. To this end, 100-µl aliquots of the sample were mixed with 100 µl of PBS buffer (137 mM NaCl, 2.7 mM KCl, 10 mM Na2HPO4, 1.8 mM KH2PO4; pH 7.4). The samples were then further diluted with 100 µl of 100 mM Tris-HCl (pH 8.5) and incubated for 10 min. All samples were acidified with 5 µl of TFA and desalted using StageTips with C18 Empore disk membranes (3M)[109]. The samples were dried in a vacuum evaporator and dissolved in 10 µl of 2% ACN (0.1% TFA for analysis).
The samples were analysed using an EASY-nLC 1200 (Thermo Fisher) coupled to a QExactive Plus mass spectrometer (Thermo Fisher). Peptides were separated on 16-cm frit-less silica emitters (New Objective, 75 µm inner diameter), packed in-house with reversed-phase ReproSil-Pur C18 AQ 1.9 µm resin (Dr. Maisch). Peptides were loaded on the column and eluted for 50 min using a segmented linear gradient of 5% to 95% solvent B (0 min, 5% B; 0–5 min, 15% B; 5–35 min, 50% B; 35–45 min, 95% B; 45–50 min, 95% B) (solvent A: 0% ACN, 0.1% FA; solvent B: 80% ACN, 0.1% FA) at a flow rate of 300 nl min^−1. Mass spectra were acquired in data-dependent acquisition mode with a TOP10 method. Mass spectrometry spectra were acquired in the Orbitrap analyser with a mass range of 300–1,500 m/z at a resolution of 70,000 full width at half maximum (FWHM) and a target value of 3 × 10^6 ions. Precursors were selected with an isolation window of 1.3 m/z. Higher-energy collision dissociation (HCD) fragmentation was performed at a normalized collision energy of 25. Tandem mass spectrometry (MS/MS) spectra were acquired with a target value of 5 × 10^5 ions at a resolution of 17,500 FWHM, a maximum injection time of 85 ms and a fixed first mass of 100 m/z. Peptides with a charge of 1 or greater than 6 or with an unassigned charge state were excluded from fragmentation for MS/MS; dynamic exclusion for 20 s prevented repeated selection of precursors. The raw data were analysed on the MS1 level using Skyline (https://skyline.ms)[110], and the results were filtered for the respective intact peptides, or the acetylated version in the case of AtPep1. […]

[1] = MF79 gspD mutant supernatant, XVM2 medium, replicate 1
[2] = MF79 gspD mutant supernatant, XVM2 medium, replicate 2
[3] = MF79 gspD mutant supernatant, XVM2 medium, replicate 3
[4] = MF79 supernatant, XVM2 medium, replicate 1
[5] = MF79 supernatant, XVM2 medium, replicate 2
[6] = MF79 supernatant, XVM2 medium, replicate 3
[7] = axenic XVM2 medium control, replicate 1
[8] = axenic XVM2 medium control, replicate 2
[9] = axenic XVM2 medium control, replicate 3

Substance | peptide degradation in culture supernatant of wild-type D. japonica MF79 | peptide depletion in supernatant of the D. japonica MF79 gspD mutant | Log10(total_area_MS1) [1] | Log10(total_area_MS1) [2] | Log10(total_area_MS1) [3] | percent_rel_axenic [1] [%] | percent_rel_axenic [2] [%] | percent_rel_axenic [3] [%] | Log10(total_area_MS1) [4] | Log10(total_area_MS1) [5] | Log10(total_area_MS1) [6] | percent_rel_axenic [4] [%] | percent_rel_axenic [5] [%] | percent_rel_axenic [6] [%] | Log10(total_area_MS1) [7] | Log10(total_area_MS1) [8] | Log10(total_area_MS1) [9] | percent_rel_axenic [7] [%] | percent_rel_axenic [8] [%] | percent_rel_axenic [9] [%]
QRLSTGSRINSAKDDAAGLQIA [flg22] | similarly effective in degrading | depleted | 0 | 0 | 0 | 0 | 0 | 0 | 0 | 0 | 0 | 0 | 0 | 0 | 7.6416 | 7.393 | 7.844 | 94.9639 | 53.5357 | 151.5
Ac-SKEKFERTKPHVNVGTIG [elf18] | similarly effective in degrading | depleted | 7.363 | 7.327 | 7.195 | 0.1126 | 0.1036 | 0.0764 | 8.052 | 7.627 | 7.56 | 0.5496 | 0.2067 | 0.1772 | 10.4148 | 10.2259 | 10.2716 | 126.772 | 82.063 | 91.1647
ATKVKAKQRGKEKVSSGRPGQHN [AtPep1] | similarly effective in degrading | depleted | 0 | 0 | 0 | 0 | 0 | 0 | 7.596 | 7.38 | 6.998 | 0.3481 | 0.2117 | 0.0878 |  | 10.0991 | 9.961 |  | 110.888 | 80.7256
